# Literature values in patent publication US20240268433A1, “Nutritional Compositions for Preserving Muscle Mass” (Dutch Medical Food B.V., priority 2021, published 2024).
# Tests used:
# [1] = tested on: elderly adults exposed to bedrest; conditions: bed rest induced muscle atrophy
# [2] = tested on: female individuals that complain about their sleep quality
# [3] = tested on: adults between the age of 25 and 59 years
# GABAA receptor = conditions: chicken; administered with serine
compound,measurement,setting,value
"CC(C)(O)CC(=O)O [HMB, Beta-hydroxy beta-methylbutyrate]",derangements in skeletal muscle metabolism and mitochondria,[1],able to attenuate and prevent derangements in skeletal muscle metabolism and mitochondria
NCC(=O)O [glycine],daytime sleepiness,[2]; especially in the morning,positive effect
same,subjective quality of sleep,[2]; ingestion prior to sleep,beneficial effect on the subjective quality of sleep
N[C@@H](CO)C(=O)O [serine],resistance or rebound insomnia after discontinuation of ingestion,[3]; after discontinuation of ingestion,did not appear to suffer from resistance or occurrence of rebound insomnia
same,"quality of sleep (sleep initiation, nighttime awakenings)",[3]; ingestion about 30 minutes before going to sleep,beneficial effect on the quality of sleep
picrotoxin,effect on sedative and hypnotic effect of serine,GABAA receptor,attenuated the sedative and hypnotic effect of serine
